In patent publication US20230414634A1, “METHODS FOR TREATING CHOLESTATIC PRURITUS” (GlaxoSmithKline Intellectual Property (No.2) Limited, priority 2020, published 2023):

Tested on: patients with PBC and cholestatic pruritus
Experiment: GLIMMER Phase 2b study (NCT02966834): itch efficacy and PBC-40 quality of life
Assay type: in vivo, human
Details: for mean increase in itch responder days: difference from placebo, 12 weeks' treatment
Excerpt: Measurement of Itch (pruritus)—10 Point Numerical Rating Scale (NRS) • Itch Score: itch scores recorded by study participants twice daily; a 0-10 Numerical Rating Scale (NRS) is used to assess itch with a response option of 0 representing no itching and 10 the worst imaginable itching • Worst Daily Itch Score: the worst of two itch scores recorded by a patient daily is considered the score for that day (i.e. the most severe (highest) NRS recorded on a given day) • Mean Worst Daily Itch Score (Weekly Itch Score [WIS]): the average of the Worst Daily Itch Scores in one week (7 days) • Monthly Itch Score (MIS): the worst Mean Worst Daily Itch Score for that month (i.e., worst week score of the 4 weeks) • Itch Response: for example, ≥2-point improvement in mean Worst Daily Itch Score from Baseline • Itch Responder Days: days when the Itch Response definition is met (i.e. days with an Itch Response) • Itch Severity: measured using 0-10 NRS; moderate to severe is ≥4 NRS • Baseline (itch score at the end of the placebo period before treatment,) is the average of the itch scores in the 7 days prior to randomisation (in Example 2, prior to randomisation at Week 4) • Change from Baseline was calculated as the post-Baseline value minus the Baseline value.
GLIMMER trial: Phase 2b study (NCT02966834; GSK study 201000). A randomized, double-blind, placebo-controlled study of linerixibat, an inhibitor of the ileal bile acid transporter, in the treatment of cholestatic pruritus in primary biliary cholangitis, for patients with PBC and pruritus.
The twice daily patient-reported 0-10 Numerical Rating Scale (NRS) worst itch assessment was employed, with the worst value from each day used to calculate the mean worst daily itch, which was then used to assess change in pruritus. This measure has independent content validity in PBC; similar measures are psychometrically valid and have been used to determine changes in itch intensity in PBC.
Patients with PBC with pruritus (≥4 on 0-10 numeric rating scale [NRS]) were enrolled; double-blind treatment was preceded and followed by 4 weeks' single-blind placebo.
At Week 4, patients with NRS ≥3 were randomized,(4:1) to double-blind linerixibat or placebo for 12 weeks (to Week 16), followed by single-blind placebo (to Week 20).
Primary endpoint: mean change from baseline in mean Worst Daily Itch Score at Week 16. Participants were required to score the severity of their itching using the 0-10 NRS, from which the Worst Daily Itch Score is obtained, and the Mean Worst Daily Itch score was calculated as the average of the worst daily itch scores provided in the 7 days prior to the Week 16 visit. Baseline is the average of the scores in the 7 days prior to the Week 4, and the Change from Baseline was calculated. Analysis was done using Analysis of covariance (ANCOVA) including treatment group and centered Mean Worst Daily Itch score at Baseline.
Secondary and exploratory endpoints: itch efficacy, quality of life (PBC-40) and pharmacodynamic biomarkers, and safety and tolerability.
Ad hoc endpoint: change from baseline itch compared with Monthly Itch Score over the main study period.
Due to the potential fluctuation of itch over time, an additional post-hoc analysis was conducted on the primary endpoint according to the FDA preferred approach to evaluate the effect over the entire 12 weeks treatment duration using Monthly Itch Score. A mixed model repeated measures (or mixed-effect repeated measure model) (MMRM) analysis estimated the effect of linerixibat comparing to placebo over the entire 12 weeks treatment duration.

Compound: CCCC[C@]1(CC)CS(=O)(=O)c2cc(CNC(CC(=O)O)CC(=O)O)c(OC)cc2[C@@H](c2ccccc2)N1 [linerixibat]
- responder days vs placebo (40 mg BID and 90 mg BID): Significantly more
- Mean Worst Daily Itch Score of patients with moderate to severe itch at baseline, versus placebo (40 mg BID, 12 weeks treatment): Significant difference
- PBC-40 emotional domain, LS Mean difference vs placebo (40 mg BID, 95% CI: −1.9, 0.3): −0.8
- PBC-40 social domain, LS Mean difference vs placebo (40 mg BID, 95% CI: −4.8, 0.1): −2.4
- mean increase in itch responder days (40 mg BID): 20%
- LS Mean Change from Baseline vs Placebo in Monthly Itch Score over 12 weeks treatment (MMRM, post-hoc) (40 mg BID, p=0.011): -1.16
- Monthly Itch Score, improvement from baseline over 12 weeks treatment (40 mg and 90 mg BID, 180 mg QD): Significant improvement
- mean increase in itch responder days (90 mg BID): 27%
- LS Mean Change from Baseline vs Placebo in Monthly Itch Score over 12 weeks treatment (MMRM, post-hoc) (90 mg BID, p=0.037): −0.95
- LS Mean Change from Baseline vs Placebo in Monthly Itch Score over 12 weeks treatment (MMRM, post-hoc) (180 mg QD, p=0.042): −0.90
- pre-specified primary endpoint: dose response across dose ranges (ITT and per protocol populations): could not be established
- mean Worst Daily Itch Score (all linerixibat doses): rapid improvement
- PBC-40 itch domain, change from baseline after 12 weeks (all treatment groups including placebo, p≤0.05): significant improvement
